Read-outs that look alike come from different tables or passages of the source. Peptide text beside a SMILES is read from it.
Legend:
Format in all cases: cell-based
[1] = test system: A. baumannii ATCC 19606, Acinetobacter spp. ATCC 17903, Acinetobacter spp. ATCC 19004, E. coli BL21, S. aureus, S. typhimurium AroA, P. aeruginosa, P. …; test: Antibacterial spectrum over the serial dilution panel (Table 6); settings: summary of Table 6
Procedure: Synthetic peptides were tested for their ability to inhibit bacterial growth in liquid culture. The peptides were added at a concentration of between about 5 μM and about 10 μM to individual wells of 96-deep-well dishes that contained liquid growth media freshly inoculated with one of the following bacteria: A. baumannii ATCC Accession No. 19606, Acinetobacter spp. ATCC 17903, Acinetobacter spp. ATCC 19004, Escherichia coli strain BL21, S. aureus, S. typhimurium strain AroA, P. aeruginosa or P. pneumotropica. After 5-6 hours of shaking at 37° C., growth was measured as absorbance at 595 nm. As a control, cultures were grown in the presence of 0.1% acetonitrile (i.e., the concentration present in 10 μM peptide).

[2] = test system: S. typhimurium strain AroA
Procedure: Synthetic peptides were tested for their ability to inhibit bacterial growth in liquid culture. […] 19606, Acinetobacter spp. ATCC 17903, Acinetobacter spp. ATCC 19004, Escherichia coli strain BL21, S. aureus, S. typhimurium strain AroA, P. aeruginosa or P. pneumotropica. After 5-6 hours of shaking at 37° C., growth was measured as absorbance at 595 nm. As a control, cultures were grown in the presence of 0.1% acetonitrile (i.e., the concentration present in 10 μM peptide).

[3] = test system: A. baumannii
Source text: Broth dilution methods are e.g., described by Lorian (2007) In: Antibiotics in Laboratory Medicine, Fifth Edition; and In: Clinical and Laboratory Standards Institute, CLSI (formerly NCCLS), In: Methods for Dilution Antimicrobial Susceptibility Tests for Bacteria that Grow Aerobically—Approved Standard—Seventh Edition, CLSI document M7-A7, Villanova, Pa. (NCCLS; January 2006; Vol. 26 No. 2); and In: Clinical and Laboratory Standards Institute, CLSI (formerly NCCLS), Performance Standards for Antimicrobial Susceptibility Testing, Seventeenth Informational Supplement, M100-S17, Vol 27 No. 1 January 2007, all of which are incorporated herein by reference.
The present inventors used such methods to quantitate activity in vitro of antimicrobial peptides of the invention against bacterial isolates, including laboratory strains and 50 clinical isolates of A. baumannii, and S. aureus ATCC Accession No. 2992. Briefly, small volumes of broth are dispensed in sterile, plastic microtiter trays, and 100 μl of serially-diluted antimicrobial peptide (0.1-64 μg) and 100 μl test organism (approximately 1×10^5 C.F.U.), are added. Following aerobic incubation overnight at 35±2° C. Control samples lacked peptide (Growth control), or lacked peptide and bacteria (Sterility control). The trays were examined visually and the minimal inhibitory concentration (MIC) of peptide required to inhibit bacterial growth were determined. The minimum bactericidal concentration (MBC) was estimated by sub-culturing the wells for which no bacterial growth was visible to the naked eye, to thereby determine a concentration of antimicrobial that reduces the original inoculum by at least about 99.9%.

Row | SMILES | % inhibition of bacterial growth by peptide ([2]; 12.5 μM peptide) [%] | % inhibition of bacterial growth by peptide ([2]; 15 μM peptide) [%] | % inhibition of bacterial growth by peptide ([2]; 17.5 μM peptide) [%] | % inhibition of bacterial growth by peptide ([2]; 20 μM peptide) [%] | % inhibition of bacterial growth by peptide ([2]; 5 μM peptide) [%] | % inhibition of bacterial growth by peptide ([2]; 10 μM peptide) [%] | other results
1 | CC(C)C[C@H](NC(=O)[C@H](C)NC(=O)[C@H](CS)NC(=O)[C@H](CO)NC(=O)[C@H](C)NC(=O)[C@H](CO)NC(=O)[C@H](CCCNC(=N)N)NC(=O)CN)C(=O)N[C@@H](CCCNC(=N)N)C(=O)N[C@@H](Cc1c[nH]c2ccccc12)C(=O)N[C@@H](C)C(=O)NCC(=O)N1CCC[C@H]1C(=O)N[C@@H](CC(C)C)C(=O)N1CCC[C@H]1C(=O)N[C@@H](CCCCN)C(=O)NCC(=O)N[C@@H](CCCNC(=N)N)C(=O)NCC(=O)N[C@@H](CCCCN)C(=O)N[C@@H](Cc1c[nH]c2ccccc12)C(=O)N[C@@H](Cc1c[nH]c2ccccc12)C(=O)N[C@@H](CS)C(=O)O [Ac68] (H-GRSASCALRWAGPLPKGRGKWWC-OH; N-terminus and C-terminus assumed) | 0 | 0 | 0 | 0 | – | – | selectively inhibited growth of Acinetobacter spp. ATCC 19004 [1]: selectively inhibited growth
2 | CC[C@H](C)[C@H](NC(=O)[C@H](Cc1ccccc1)NC(=O)[C@H](CCC(N)=O)NC(=O)[C@H](CO)NC(=O)[C@H](Cc1ccccc1)NC(=O)[C@H](Cc1c[nH]cn1)NC(=O)[C@H](CCCNC(=N)N)NC(=O)[C@H](Cc1c[nH]cn1)NC(=O)[C@@H](NC(=O)[C@H](CCCNC(=N)N)NC(=O)[C@H](CC(C)C)NC(=O)CNC(=O)[C@H](CC(C)C)NC(=O)[C@H](CC(=O)O)NC(=O)[C@H](CCCNC(=N)N)NC(=O)[C@@H](NC(=O)[C@H](CCC(N)=O)NC(=O)[C@H](CCCNC(=N)N)NC(=O)[C@@H](N)CCCNC(=N)N)C(C)C)C(C)C)C(=O)N[C@@H](CC(N)=O)C(=O)N[C@@H](CCCNC(=N)N)C(=O)N[C@@H](CO)C(=O)NCC(=O)O [Ac173] (H-RRQVRDLGLRVHRHFSQFINRSG-OH; N-terminus and C-terminus assumed) | 0 | 0 | 0 | 0 | – | – | selectively inhibited growth of Acinetobacter spp. ATCC 19004 [1]: selectively inhibited growth
3 | CC[C@H](C)[C@H](NC(=O)[C@H](CCCCN)NC(=O)[C@H](CO)NC(=O)[C@H](CC(C)C)NC(=O)[C@@H](N)CC(C)C)C(=O)N[C@@H](CCCNC(=N)N)C(=O)N[C@@H](C)C(=O)N[C@@H](CC(C)C)C(=O)N[C@@H](CCCNC(=N)N)C(=O)N[C@@H](CCCNC(=N)N)C(=O)N[C@@H](CCCNC(=N)N)C(=O)N[C@@H](CCCNC(=N)N)C(=O)N[C@@H](Cc1ccccc1)C(=O)NCC(=O)N[C@@H](CCC(N)=O)C(=O)N[C@@H](CO)C(=O)N[C@@H](CC(=O)O)C(=O)N[C@@H](CCCCN)C(=O)N[C@@H](CCCNC(=N)N)C(=O)N[C@H](C(=O)N[C@@H](CO)C(=O)N[C@@H](Cc1ccc(O)cc1)C(=O)N[C@@H](CCCCN)C(=O)O)[C@@H](C)CC [Ac16] (H-LLSKIRALRRRRFGQSDKRISYK-OH) | – | – | – | – | – | – | selectively inhibited growth of A. baumannii ATCC Accession No. 19606, Acinetobacter spp. ATCC 17903 and Acinetobacter spp. ATCC 19004 [1]: selectively inhibited growth; MIC (μM) for non-amidated Peptide [3]: 10 to 15 µM
4 | CC[C@H](C)[C@H](NC(=O)[C@H](Cc1c[nH]c2ccccc12)NC(=O)[C@H](CC(=O)O)NC(=O)[C@H](CO)NC(=O)[C@H](CS)NC(=O)[C@H](CC(C)C)NC(=O)[C@H](CC(C)C)NC(=O)[C@H](C)NC(=O)[C@H](CS)NC(=O)[C@H](CCCNC(=N)N)NC(=O)[C@H](CC(C)C)NC(=O)[C@H](CCCNC(=N)N)NC(=O)[C@H](C)NC(=O)CN)C(=O)N[C@H](C(=O)N[C@@H](CO)C(=O)N[C@@H](CS)C(=O)N[C@@H](CCCNC(=N)N)C(=O)N[C@@H](CC(C)C)C(=O)N[C@@H](CC(C)C)C(=O)NCC(=O)N[C@H](C(=O)N[C@@H](CC(N)=O)C(=O)O)C(C)C)C(C)C [Ac40] (H-GARLRCALLCSDWIVSCRLLGVN-OH; N-terminus and C-terminus assumed) | – | – | – | – | – | – | selectively inhibited growth of A. baumannii ATCC Accession No. 19606, Acinetobacter spp. ATCC 17903, Acinetobacter spp. ATCC 19004, and S. aureus [1]: selectively inhibited growth; MIC (μM) for amidated peptide [3]: 10 to 15 µM; MIC (μM) for non-amidated Peptide [3]: 10 to 15 µM
5 | CC[C@H](C)[C@H](NC(=O)[C@H](CS)NC(=O)[C@H](CCCCN)NC(=O)[C@H](CC(C)C)NC(=O)[C@H](Cc1ccccc1)NC(=O)[C@H](CC(=O)O)NC(=O)[C@H](CC(C)C)NC(=O)[C@H](CCCNC(=N)N)NC(=O)[C@H](CC(N)=O)NC(=O)[C@H](Cc1ccccc1)NC(=O)CNC(=O)[C@@H](NC(=O)[C@@H](NC(=O)[C@H](Cc1c[nH]cn1)NC(=O)[C@H](CC(N)=O)NC(=O)[C@@H](NC(=O)[C@@H](NC(=O)[C@H](Cc1c[nH]cn1)NC(=O)[C@H](Cc1ccccc1)NC(=O)[C@H](CO)NC(=O)[C@@H](NC(=O)[C@@H](N)Cc1ccccc1)C(C)C)[C@@H](C)O)[C@@H](C)O)C(C)C)[C@@H](C)CC)C(=O)N[C@@H](CO)C(=O)O [Ac3] (H-FVSFHTTNHVIGFNRLDFLKCIS-OH; N-terminus and C-terminus assumed) | – | 6 | – | 18 | 2 | 2 | selectively inhibited growth of A. baumannii ATCC Accession No. 19606, Acinetobacter spp. ATCC 17903, Acinetobacter spp. ATCC 19004, and S. aureus [1]: selectively inhibited growth
6 | CC[C@H](C)[C@H](NC(=O)[C@H](CCCCN)NC(=O)[C@@H](NC(=O)[C@H](CCCNC(=N)N)NC(=O)[C@H](CO)NC(=O)[C@H](Cc1ccccc1)NC(=O)[C@H](CS)NC(=O)[C@H](CC(N)=O)NC(=O)[C@@H]1CCCN1C(=O)[C@H](CC(=O)O)NC(=O)CN)C(C)C)C(=O)N[C@@H](CC(C)C)C(=O)N[C@@H](C)C(=O)N[C@@H](CS)C(=O)O [Ac96] (H-GDPNCFSRVKILAC-OH) | 0 | 6 | 0 | 0 | – | – | selectively inhibited growth of Acinetobacter spp. ATCC 19004, and S. aureus [1]: selectively inhibited growth
7 | CSCC[C@H](NC(=O)[C@H](CCCCN)NC(=O)[C@H](CC(C)C)NC(=O)[C@H](CC(C)C)NC(=O)[C@H](Cc1ccccc1)NC(=O)[C@H](Cc1ccccc1)NC(=O)[C@@H](N)Cc1ccccc1)C(=O)N[C@@H](CC(N)=O)C(=O)N[C@@H](Cc1ccc(O)cc1)C(=O)N[C@@H](CC(N)=O)C(=O)N[C@@H](C)C(=O)N[C@H](C(=O)N[C@@H](Cc1c[nH]cn1)C(=O)N[C@@H](CC(C)C)C(=O)N[C@@H](C)C(=O)NCC(=O)N[C@@H](CCCNC(=N)N)C(=O)N[C@@H](CCC(=O)O)C(=O)N[C@@H](Cc1ccccc1)C(=O)O)[C@@H](C)O [Ac88] (H-FFFLLKMNYNATHLAGREF-OH; N-terminus and C-terminus assumed) | – | 0 | – | 13 | 0 | 0 | selectively inhibited growth of S. aureus [1]: selectively inhibited growth
8 | C[C@H](NC(=O)[C@@H](NC(=O)CNC(=O)[C@@H]1CCCN1C(=O)[C@H](Cc1c[nH]cn1)NC(=O)[C@H](CCCNC(=N)N)NC(=O)[C@H](Cc1c[nH]cn1)NC(=O)[C@H](CCCNC(=N)N)NC(=O)[C@H](Cc1c[nH]cn1)NC(=O)[C@H](CCCNC(=N)N)NC(=O)[C@H](CCCNC(=N)N)NC(=O)[C@H](Cc1c[nH]cn1)NC(=O)[C@H](CCCNC(=N)N)NC(=O)[C@H](Cc1c[nH]cn1)NC(=O)[C@H](Cc1c[nH]cn1)NC(=O)[C@@H]1CCCN1C(=O)[C@H](Cc1c[nH]cn1)NC(=O)[C@@H]1CCCN1C(=O)[C@H](CCC(N)=O)NC(=O)[C@H](CCC(N)=O)NC(=O)[C@@H]1CCCN1C(=O)[C@@H](NC(=O)[C@@H](N)CC(N)=O)[C@@H](C)O)[C@@H](C)O)C(=O)O [Ac47] (H-NTPQQPHPHHRHRRHRHRHPGTA-OH; N-terminus and C-terminus assumed) | – | 29 | – | 50 | 13 | 25 | selectively inhibited growth of Acinetobacter spp. ATCC 19004, and S. aureus [1]: selectively inhibited growth
